AC50 cell viability and efficacy data for 25 compounds are collected here from the supplement of paper PMC10290057.

Structures can show the parent of a compound that is named as a salt.

Experiment [1] relates to HCT116. Put plainly: AC50 cell viability (CellTiter-Glo); higher = less potent. The settings on record: 48 h. (In general: Cellular ATP, detected with luciferase, serves as a proxy for viable cell number.)
Experiment [2] relates to HCT116. Put plainly: efficacy (fitted maximal change in viability relative to DMSO control); higher = less cytotoxic (negative = loss of viability). The settings on record: 48 h.
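Wherever AC50 cell viability (CellTiter-Glo) is given: HCT116 colorectal carcinoma cells screened at five concentrations per compound, luminescent viability scaled between DMSO wells and empty wells on each plate, curves fitted per compound.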
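Wherever efficacy (fitted maximal change in viability relative to DMSO control) is given: Luminescence-based viability readout, five doses per compound, normalized against on-plate DMSO and empty-well controls, followed by dose-response curve fitting for every drug.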

`CC(C)C(=O)Nc1ncc(-c2cc(C(F)F)nn2-c2c(Cl)cccc2Cl)s1` [BMS-5] showed an AC50 cell viability with HCT116 [1] of 18.6 µM. Moreover, the efficacy in the experiment on HCT116 [2] was -80.8%.

The compound `COc1nc(OCc2cccc(-c3ccccc3)c2C)ccc1CNCCNC(C)=O` [BMS-202] showed an AC50 cell viability with HCT116 [1] of 14.8 µM. In the experiment with HCT116 [2], the efficacy was -89.9%.

With `COC(=O)Nc1cc(Nc2cc(NC3CC3)c3ncc(C#N)n3n2)c(Cl)c(N2CCN(C)CC2)c1` [BMS-595], the AC50 cell viability in the experiment on HCT116 [1] turned out to be 0.525 µM. Also, in the experiment with HCT116 [2], the efficacy was -103%.

`CC(C)c1cnn2c(NCc3ccccc3)cc(N[C@@H](CO)[C@H](O)CO)nc12` [BS-194] showed an AC50 cell viability with HCT116 [1] of 0.0833 µM. In the experiment with HCT116 [2], the efficacy was -59.1%.

`C[C@@H]1CN(Cc2ccc(F)cc2)CCN1C(=O)COc1ccc(Cl)cc1NC(N)=O` [BX-471] displayed an AC50 cell viability in the experiment with HCT116 [1] of 0.209 µM. In addition, the efficacy in the experiment with HCT116 [2] is -59.8%.

With `Cc1nc(NC(=O)N2CCCC2C(N)=O)sc1-c1ccnc(C(C)(C)C(F)(F)F)c1` (stereo not given) [BYL-719], in the experiment with HCT116 [1], the AC50 cell viability is 3.72 µM. Besides, the efficacy in the experiment with HCT116 [2] was -87.4%.

In the experiment with HCT116 [1], `Cc1ccc(NC(=O)c2ccc(CN3CC[C@H](N(C)C)C3)c(C(F)(F)F)c2)cc1Nc1nccc(-c2cncnc2)n1` [Bafetinib (INNO-406)] had an AC50 cell viability of 7.23 µM. The efficacy with HCT116 [2] is -131%.

In turn, `CO/C1=C/C(C)=C\[C@@H](C)[C@@H](O)[C@@H](C)C/C(C)=C\C=C/[C@H](OC)[C@@H]([C@@H](C)[C@@H](O)[C@H](C)[C@@]2(O)C[C@@H](O)[C@H](C)[C@@H](C(C)C)O2)OC1=O` [Bafilomycin A1] had an AC50 cell viability in the experiment with HCT116 [1] of 0.035 µM. In addition, the efficacy in the experiment with HCT116 [2] is -81.9%.

`C[N+](C)([O-])CCNc1ccc(NCC[N+](C)(C)[O-])c2c1C(=O)c1c(O)ccc(O)c1C2=O` [Banoxantrone]: the AC50 cell viability in the experiment with HCT116 [1] amounted to 2.09 µM. Further, the efficacy in the experiment on HCT116 [2] is -45.2%.

`COC(=O)[C@]12CCC(C)(C)C[C@H]1[C@H]3C(=O)\C=C\4[C@@](C)(CC[C@H]5C(C)(C)C(=O)\C(=C/[C@]45C)C#N)[C@]3(C)CC2` [Bardoxolone methyl] showed an AC50 cell viability with HCT116 [1] of 7.42 µM. Also, in the experiment with HCT116 [2], the efficacy is -91.9%.

Turning to `CC[S+](=O)([O-])N1CC(CC#N)(n2cc(-c3ncnc4[nH]ccc34)cn2)C1` [Baricitinib], in the experiment on HCT116 [1], the AC50 cell viability came to 29.5 µM. The efficacy in the experiment with HCT116 [2] was -91.6%.

In turn, `O=C1Nc2nc(-c3c(O)cccc3OCC3CC3)cc([C@@H]3CCCNC3)c2CO1` [Bay-65-1942 hydrochloride] had an AC50 cell viability with HCT116 [1] of 9.34 µM. For the same compound, the efficacy in the experiment on HCT116 [2] is -90.5%.

Compound `CC(C)(C)NC(=O)Nc1cccc(Nc2ncc(F)c(NC(C)(C)CO)n2)c1` [Bayer-18] registered an AC50 cell viability in the experiment on HCT116 [1] of 18.6 µM. In addition, in the experiment on HCT116 [2], the efficacy is -54.8%.

`Cc1c(-c2ccc(O)cc2)n(Cc2ccc(OCCN3CCCCCC3)cc2)c2ccc(O)cc12` [Bazedoxifene] yielded an AC50 cell viability in the experiment with HCT116 [1] of 20.9 µM. For the same compound, in the experiment with HCT116 [2], the efficacy is -101%.

As to `O=C(/C=C/c1cccc([S+](=O)([O-])Nc2ccccc2)c1)NO` [Belinostat], the AC50 cell viability with HCT116 [1] was determined as 0.525 µM. Moreover, in the experiment with HCT116 [2], the efficacy is -87.7%.

As to `CC(C)NC(=O)[C@H]1CC[C@@H](n2c(NC(=O)c3ccc(F)cc3)nc3ccc(CN4CCC(C(C)(C)O)CC4)cc32)CC1` [Belizatinib], in the experiment with HCT116 [1], the AC50 cell viability was 7.23 µM. For the same compound, the efficacy with HCT116 [2] was -92.8%.

With `CC[C@@]1(O)C(=O)OCC/2=C1/C=C/3N(CC4=C(CCNC(C)C)C5=CC=CC=C5N=C34)C2=O` [Belotecan], in the experiment with HCT116 [1], the AC50 cell viability was 0.0166 µM. In addition, the efficacy with HCT116 [2] was -80.8%.

`Nc1nc(Nc2ccc3c(c2)CC[C@@H](N2CCCC2)CC3)nn1-c1cc2c(nn1)-c1ccccc1CCC2` [Bemcentinib] came in with an AC50 cell viability with HCT116 [1] of 14.8 µM. Moreover, in the experiment on HCT116 [2], the efficacy is -108%.

Turning to `N/C(=N\C(=O)c1nc(Cl)c(N)nc1N)NCc1ccccc1` [Benzamil], the AC50 cell viability with HCT116 [1] stood at 20.9 µM. Further, the efficacy in the experiment with HCT116 [2] was -81%.

Compound `CC(C)COCC(CN(Cc1ccccc1)c1ccccc1)N1CCCC1` (stereo not given) [Bepridil] yielded an AC50 cell viability in the experiment with HCT116 [1] of 16.6 µM. In addition, the efficacy with HCT116 [2] is -104%.

For `COc1ccc2cc3[n+](cc2c1OC)CCc1cc2c(cc1-3)OCO2` [Berberine], the AC50 cell viability in the experiment with HCT116 [1] amounted to 14.8 µM. For the same compound, in the experiment on HCT116 [2], the efficacy was -96.9%.

On to `CNCc1ccc(-c2cc(-c3nc(-c4ccc([S+](=O)([O-])C(C)C)cc4)cnc3N)on2)cc1` [Berzosertib], for which the AC50 cell viability with HCT116 [1] stood at 10.5 µM. Further, the efficacy in the experiment with HCT116 [2] is -63%.

`C[N+](C)(C)CC(=O)O` [Betaine]: the AC50 cell viability with HCT116 [1] was found to be 20.9 µM. For the same compound, the efficacy in the experiment with HCT116 [2] is -51.8%.

Compound `Nc1cc(C(F)(F)F)c(-c2nc(N3CCOCC3)nc(N3CCOCC3)n2)cn1` [Bimiralisib] yielded an AC50 cell viability in the experiment with HCT116 [1] of 1.86 µM. For the same compound, the efficacy in the experiment on HCT116 [2] was -60.2%.

In the experiment on HCT116 [1], `CC1=C(C)C\2=C(S1)[N]3C(=NN=C3C(CC(=O)NC4=CC=C(O)C=C4)\N=C2C5=CC=C(Cl)C=C5)C` (stereo not given) [Birabresib] displayed an AC50 cell viability of 0.833 µM. Also, the efficacy in the experiment with HCT116 [2] is -80.8%.
